According to ChEMBL document CHEMBL4715926, “Synthesis of Resolvin E1 and Its Conformationally Restricted Cyclopropane Congeners with Potent Anti-Inflammatory Effect” (2021):
The source made the active and inactive calls. No cut-off for these calls is given here.

Test system: Mus musculus
Experiment: Antiinflammatory activity in BALB/c mouse assessed as inhibition of heat killed Propionibacterium acnes-induced neutrophil influx at 300 pg, ip administered 12 hrs after Propionibacterium acnes stimulation and measured after 24 hrs by flow cytometry analysis
Format: functional

Structure (SMILES)	inhibition	inhibition (INH) [%]
CC[C@@H](O)/C=C/C=C\C[C@@H](O)/C=C/C=C/C=C\[C@@H](O)[C@H]1C[C@H]1C(=O)O	Active	
CC[C@@H](O)/C=C/C=C\C[C@@H](O)/C=C/C=C/C=C\[C@@H](O)CCCC(=O)O [RESOLVIN E1]		31
CC[C@@H](O)/C=C/C=C\C[C@@H](O)/C=C/C=C/C=C\[C@@H](O)[C@H]1C[C@@H]1C(=O)O		50
CC[C@@H](O)/C=C/C=C\C[C@@H](O)/C=C/C=C/C=C\[C@@H](O)[C@@H]1C[C@H]1C(=O)O	Active	
CC[C@@H](O)/C=C/C=C\C[C@@H](O)/C=C/C=C/C=C\[C@@H](O)[C@@H]1C[C@@H]1C(=O)O	Active	
